This passage reports IC50 results from patent US10112926B2 (priority 2014, dated 2018).

One may read the IC50 as the midpoint of a concentration-inhibition curve.

For assay [1], the target named is Vps34 (Homo sapiens (Human), UniProt Q8NEB9). The following applies: read-out: Assay C VPS34 IC50.
Assay [2] deals with mTOR (Homo sapiens (Human), UniProt P42345). The following applies: read-out: Assay G mTOR IC50.
In assay [3] the target is PI 4-kinase beta (Homo sapiens (Human), UniProt Q9UBF8). The following applies: read-out: Assay D PI4Kβ IC50.

Structures can show the parent of a compound that is named as a salt.

Sequence of PI 4-kinase beta (Q9UBF8 whole entry): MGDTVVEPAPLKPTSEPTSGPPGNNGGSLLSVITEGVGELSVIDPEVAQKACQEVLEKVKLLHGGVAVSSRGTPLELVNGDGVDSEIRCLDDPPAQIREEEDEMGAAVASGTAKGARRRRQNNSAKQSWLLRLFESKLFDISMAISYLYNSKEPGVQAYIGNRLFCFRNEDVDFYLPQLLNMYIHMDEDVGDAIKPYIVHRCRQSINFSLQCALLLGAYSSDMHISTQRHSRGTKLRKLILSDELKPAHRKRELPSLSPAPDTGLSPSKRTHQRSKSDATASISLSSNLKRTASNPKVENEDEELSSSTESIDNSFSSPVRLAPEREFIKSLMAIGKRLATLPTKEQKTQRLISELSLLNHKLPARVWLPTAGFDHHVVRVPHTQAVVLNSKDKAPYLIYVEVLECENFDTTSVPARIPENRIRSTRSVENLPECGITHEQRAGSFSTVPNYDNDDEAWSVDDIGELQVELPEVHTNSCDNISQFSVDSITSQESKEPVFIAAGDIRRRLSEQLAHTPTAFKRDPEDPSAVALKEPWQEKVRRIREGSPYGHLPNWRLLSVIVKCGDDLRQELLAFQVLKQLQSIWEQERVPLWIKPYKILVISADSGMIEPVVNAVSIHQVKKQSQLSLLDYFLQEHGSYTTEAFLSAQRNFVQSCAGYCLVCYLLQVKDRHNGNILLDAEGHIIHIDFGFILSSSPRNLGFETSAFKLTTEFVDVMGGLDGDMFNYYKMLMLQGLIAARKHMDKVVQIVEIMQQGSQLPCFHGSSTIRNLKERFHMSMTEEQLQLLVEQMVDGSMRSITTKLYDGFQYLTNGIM
Sequence of Vps34 (Q8NEB9 whole entry): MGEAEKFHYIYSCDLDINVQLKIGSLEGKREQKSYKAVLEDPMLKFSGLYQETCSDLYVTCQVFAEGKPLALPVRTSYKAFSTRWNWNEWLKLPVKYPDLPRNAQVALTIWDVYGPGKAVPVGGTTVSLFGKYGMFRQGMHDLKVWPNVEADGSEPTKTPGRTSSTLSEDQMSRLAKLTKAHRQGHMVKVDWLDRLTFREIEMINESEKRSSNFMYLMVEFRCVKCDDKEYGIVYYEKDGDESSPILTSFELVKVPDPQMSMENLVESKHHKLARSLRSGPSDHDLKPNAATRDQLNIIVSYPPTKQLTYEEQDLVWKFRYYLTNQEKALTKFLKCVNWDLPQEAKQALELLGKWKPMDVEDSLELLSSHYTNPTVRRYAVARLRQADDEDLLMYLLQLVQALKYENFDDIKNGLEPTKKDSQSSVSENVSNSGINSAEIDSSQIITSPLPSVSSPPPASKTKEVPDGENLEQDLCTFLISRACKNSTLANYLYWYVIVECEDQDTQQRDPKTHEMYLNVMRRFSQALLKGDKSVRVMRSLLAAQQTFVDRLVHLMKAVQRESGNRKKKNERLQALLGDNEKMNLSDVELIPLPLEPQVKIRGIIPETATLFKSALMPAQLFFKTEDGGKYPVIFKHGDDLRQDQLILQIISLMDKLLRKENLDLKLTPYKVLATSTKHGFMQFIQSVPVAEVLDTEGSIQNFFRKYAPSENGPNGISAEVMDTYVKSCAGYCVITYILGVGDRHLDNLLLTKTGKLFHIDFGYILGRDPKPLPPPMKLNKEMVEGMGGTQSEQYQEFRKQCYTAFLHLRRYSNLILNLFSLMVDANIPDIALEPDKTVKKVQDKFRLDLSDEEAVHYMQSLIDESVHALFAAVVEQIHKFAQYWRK

As for `Cc1cc(-c2cc(-c3cc(S(=O)(=O)NCCO)ccc3C)cnc2N)on1` [Example 73, 3-(6-Amino-5-(3-methylisoxazol-5-yl)pyridin-3-yl)-N-(2-hydroxyethyl)-4-methylbenzenesulfonamide], the IC50 in assay [1] and in assay [2] was above 10 µM in each case.

As to `Cc1noc(-c2cc(-c3cc(S(=O)(=O)NC4CC(O)C4)ccc3C)cnc2N)n1` (mixture of isomers) [Example 5.5, Diastereomers of 3-(6-Amino-5-(3-methyl-1,2,4-oxadiazol-5-yl)pyridin-3-yl)-N-(3-hydroxycyclobutyl)-4-methylbenzene sulfonamide hydrochloride], the IC50 in assay [1] and in assay [2] was above 10 µM throughout.

Turning to `Cc1noc(-c2cc(-c3cc(S(=O)(=O)NCC4CCCO4)ccc3C)cnc2N)n1` (stereo not drawn) [Example 57, 3-(6-Amino-5-(3-methyl-1,2,4-oxadiazol-5-yl)pyridin-3-yl)-4-methyl-N-((tetrahydrofuran-2-yl)methyl)benzenesulfonamide], the figures for the IC50 in assay [3] and in assay [2] were above 10 µM and 2.4 µM, respectively.

Regarding `Cc1ncc(-c2cc(-c3cc(S(=O)(=O)NCC(C)(C)O)ccc3C)cnc2N)s1` [Example 15, 3-[6-Amino-5-(2-methyl-thiazol-5-yl)-pyridin-3-yl]-N-(2-hydroxy-2-methyl-propyl)-4-methyl-benzenesulfonamide], the IC50 stood at 1.62 µM in assay [1] and 7.9 µM in assay [2].

`Cc1cc(-c2cc(-c3cc(S(=O)(=O)NCC4(CO)CCCCC4)ccc3C)cnc2N)on1` [Example 37.3, 3-(6-Amino-5-(3-methylisoxazol-5-yl)pyridin-3-yl)-N-((1-(hydroxymethyl)cyclohexyl)methyl)-4-methylbenzenesulfonamide]: the IC50 is above 10 µM in assay [1] and 3 µM in assay [2].

For `Cc1cc(-c2cc(-c3cc(S(=O)(=O)NCCC4CCOCC4)ccc3C)cnc2N)on1` [Example 19.12, 3-(6-amino-5-(3-methylisoxazol-5-yl)pyridin-3-yl)-4-methyl-N-(2-(tetrahydro-2H-pyran-4-yl)ethyl)benzenesulfon-amide trifluoroacetic acid salt], the IC50 in assay [1] was above 10 µM; in assay [3], 4.3 µM.

In the case of `Cc1ncc(-c2cc(-c3cc(S(N)(=O)=O)ccc3C)cnc2N)o1` [Example 33, 3-(6-Amino-5-(2-methyloxazol-5-yl)pyridin-3-yl)-4-methylbenzenesulfonamide], the figures for the IC50 in assay [1] and in assay [3] were 3.9 µM and 4.45 µM, respectively.

Take `Cc1cc(-c2cc(-c3cc(S(=O)(=O)N[C@@H]4CCNC(=O)C4)ccc3C)cnc2N)on1` [Example 37.4, (R)-3-(6-Amino-5-(3-methylisoxazol-5-yl)pyridin-3-yl)-4-methyl-N-(2-oxopiperidin-4-yl)benzenesulfonamide]: the IC50 in assay [1] is above 10 µM; in assay [3], 2.4 µM.

As to `Cc1noc(-c2cc(-c3cc(S(=O)(=O)NCC4(O)CCOCC4)ccc3C)cnc2N)n1` [Example 51, 3-(6-Amino-5-(3-methyl-1,2,4-oxadiazol-5-yl)pyridin-3-yl)-N-((4-hydroxytetrahydro-2H-pyran-4-yl)methyl)-4-methylbenzenesulfonamide], the half-inhibitory concentration (IC50) in assay [1] and in assay [3] was above 10 µM each time.

`Cc1ncc(-c2cc(-c3cc(S(=O)(=O)NOCC(C)(C)O)ccc3C)cnc2N)o1` [Example 107, 3-(6-amino-5-(2-methyloxazol-5-yl)pyridin-3-yl)-N-(2-hydroxy-2-methylpropoxy)-4-methylbenzenesulfonamide hydrochloride]: the values for the IC50 in assay [1] and in assay [3] were above 10 µM and 0.66 µM, respectively.

On to `Cc1cc(-c2cc(-c3cc(S(=O)(=O)NCCC(C)(C)O)ccc3C)cnc2N)ccn1` [Example 16, 3-(2-Amino-2′-methyl-[3,4′]bipyridinyl-5-yl)-N-(3-hydroxy-3-methyl-butyl)-4-methyl-benzenesulfonamide], for which the IC50 in assay [1] and in assay [2] was above 9.1 µM in each case.

In the case of `Cc1nc(-c2cc(-c3cc(S(=O)(=O)NCC(C)(C)O)ccc3C)cnc2N)cs1` [Example 59, 3-(6-Amino-5-(2-methylthiazol-4-yl)pyridin-3-yl)-N-(2-hydroxy-2-methylpropyl)-4-methylbenzenesulfonamide], the IC50 in assay [1] and in assay [3] was above 10 µM throughout.

For `Cc1cnc(-c2cc(-c3cc(S(=O)(=O)NCCC(C)(C)O)ccc3C)cnc2N)s1` [Example 91, 3-(6-Amino-5-(5-methylthiazol-2-yl)pyridin-3-yl)-N-(3-hydroxy-3-methylbutyl)-4-methylbenzenesulfonamide], the results for the IC50 in assay [1] and in assay [3] were above 10 µM and 0.79 µM, respectively.

Take `Cc1noc(-c2cc(-c3cc(S(=O)(=O)NC[C@@H]4CCOC4)ccc3C)cnc2N)n1` [Example 87, (S)-3-(6-Amino-5-(3-methyl-1,2,4-oxadiazol-5-yl)pyridin-3-yl)-4-methyl-N-((tetrahydrofuran-3-yl)methyl)benzenesulfonamide]: the IC50 in assay [1] is above 10 µM; in assay [3] it was 6.1 µM.

Take `Cc1nc(-c2cc(-c3cc(S(=O)(=O)N[C@H]4CC[C@H](O)CC4)ccc3C)cnc2N)cs1` [Example 92, 3-(6-Amino-5-(2-methylthiazol-4-yl)pyridin-3-yl)-N-((1r,4r)-4-hydroxycyclohexyl)-4-methylbenzenesulfonamide]: the IC50 in assay [1] was above 10 µM; in assay [3] it was 5.1 µM.

Turning to `Cc1cccc(NS(=O)(=O)c2ccc(C)c(-c3cnc(N)c(-c4nc(C)no4)c3)c2)n1` [Example 72, 3-(6-Amino-5-(3-methyl-1,2,4-oxadiazol-5-yl)pyridin-3-yl)-4-methyl-N-(6-methylpyridin-2-yl)benzenesulfonamide], the IC50 in assay [1] and in assay [3] was above 10 µM in each case.

In the case of `Cc1noc(-c2cc(-c3cc(S(=O)(=O)NCC4(CO)COC4)ccc3C)cnc2N)n1` [Example 52, 3-(6-Amino-5-(3-methyl-1,2,4-oxadiazol-5-yl)pyridin-3-yl)-N-((3-(hydroxymethyl)oxetan-3-yl)methyl)-4-methylbenzenesulfonamide], the IC50 in assay [1] and in assay [3] was above 10 µM throughout.

In the case of `Cc1noc(-c2cc(-c3cc(S(=O)(=O)N[C@H]4C[C@@H](O)C4)ccc3C)cnc2N)n1` [Example 5.5a, 3-(6-Amino-5-(3-methyl-1,2,4-oxadiazol-5-yl)pyridin-3-yl)-N-((1s,3s)-3-hydroxycyclobutyl)-4-methylbenzenesulfonamide], the concentration for half-maximal inhibition (IC50) in assay [1] and in assay [2] was above 10 µM throughout.

With `Cc1cc(-c2cc(-c3cc(S(=O)(=O)NCC4(C)COC4)ccc3C)cnc2N)on1` [Example 17, 3-[6-Amino-5-(3-methyl-isoxazol-5-yl)-pyridin-3-yl]-4-methyl-N-(3-methyl-oxetan-3-ylmethyl)-benzenesulfonamide hydrochloride], the values for the IC50 in assay [1] and in assay [2] were 8.1 µM and 8.5 µM, respectively.

In the case of `CCc1noc(-c2cc(-c3cc(S(=O)(=O)NCC(C)(C)O)ccc3C)cnc2N)n1` [Example 5.3, 3-(6-Amino-5-(3-ethyl-1,2,4-oxadiazol-5-yl)pyridin-3-yl)-N-(2-hydroxy-2-methylpropyl)-4-methylbenzenesulfon-amide hydrochloride], the IC50 in assay [1] and in assay [2] was above 10 µM in each case.

For `Cc1ncc(-c2cc(-c3cc(S(N)(=O)=O)ccc3C)cnc2N)s1` [Example 74, 3-(6-Amino-5-(2-methylthiazol-5-yl)pyridin-3-yl)-4-methylbenzenesulfonamide], the results for the IC50 in assay [1] and in assay [3] were 2.2 µM and 5 µM, respectively.
